Results taken from BindingDB's records for doi:10.1021/jm00020a011 (Zeneca Pharmaceuticals, 1995).

Assay: Binding affinity towards Acetylcholinesterase

CC(C)[C@H](NC(=O)[C@@H]1CCCN1C(=O)[C@@H](NC(=O)c1ccc(C(=O)NS(=O)(=O)c2ccc(Cl)cc2)cc1)C(C)C)C(=O)c1nc2cc(C(N)=O)ccc2o1 [2-{(S)-2-[((S)-1-{(S)-2-[4-(4-Chloro-benzenesulfonylaminocarbonyl)-benzoylamino]-3-methyl-butyryl}-pyrrolidine-2-carbonyl)-amino]-3-methyl-butyryl}-benzooxazole-5-carboxylic acid amide]
Ki: > 2 mM
